A short description of experiment [1]: Cytotoxicity in human MT3 cells assessed as reduction in cell viability incubated for 72 hrs by SRB assay. The note with it: MT-3, 72 h. (Sulforhodamine B stains cellular protein and so reports cell mass.)
Experiment [2] has as its target T1, Mitogen-activated protein kinase kinase kinase 7 (Homo sapiens) (UniProt O43318).
T1 sequence (whole entry): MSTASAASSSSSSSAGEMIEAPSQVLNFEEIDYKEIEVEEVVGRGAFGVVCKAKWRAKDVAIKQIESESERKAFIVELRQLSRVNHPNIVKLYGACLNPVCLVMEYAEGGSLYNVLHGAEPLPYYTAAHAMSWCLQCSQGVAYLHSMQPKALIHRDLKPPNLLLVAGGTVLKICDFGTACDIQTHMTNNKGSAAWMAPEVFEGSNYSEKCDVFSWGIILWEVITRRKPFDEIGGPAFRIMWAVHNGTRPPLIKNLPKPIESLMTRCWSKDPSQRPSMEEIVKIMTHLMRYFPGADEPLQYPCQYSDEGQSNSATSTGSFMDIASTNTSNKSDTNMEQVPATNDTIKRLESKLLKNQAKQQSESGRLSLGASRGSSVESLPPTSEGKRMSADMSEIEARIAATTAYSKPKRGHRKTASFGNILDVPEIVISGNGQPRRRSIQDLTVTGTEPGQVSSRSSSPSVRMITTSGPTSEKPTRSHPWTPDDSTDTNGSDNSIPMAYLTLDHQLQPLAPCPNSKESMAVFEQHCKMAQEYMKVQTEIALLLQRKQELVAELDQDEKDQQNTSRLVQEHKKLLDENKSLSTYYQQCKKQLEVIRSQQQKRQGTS
Kind of experiment: Inhibition of TAK1 (unknown origin) assessed as residual enzyme activity at 1 uM by [33P]-ATP filter binding kinase assay relative to control.

The term IC50 denotes the concentration that gives 50% inhibition. Regarding `COc1cc2c(-c3cnc(-c4ccc[nH]4)o3)c[nH]c2cc1Br`, the IC50 in experiment [1] was determined as 930 nM. For the same compound, the Activity in experiment [2] came out at 35%.

The record behind these values is ChEMBL document CHEMBL4334516, “Kinase Chemodiversity from the Arctic: The Breitfussins” (J Med Chem, 2019).
